# In EP0619297B1, “Fungicides for the control of take-all desease of plants” (MONSANTO COMPANY, priority 1993, dated 1994):
# Test system: Gaeumannomyces graminis var. tritici (Ggt)
# Assay: In vitro assay: mycelial growth on minimal media agar plates (Percent Inhibition; IC50)
# Format: cell-based
# Details: 0.1 ppm in agar, 19 - 20 °C, 4 to 5 days, read-out: In vitro(ppm) 0.1, Percent Inhibition
# Procedure: The test compounds (0.25 mL of an appropriate stock solution in acetone) are incorporated into 25 mL minimal media agar [prepared by autoclaving a solution of 17.5 g Czapek Dox broth (Difco), 7.5 g purified agar or Bacto-agar (Difco), and 500 mL distilled/deionized water, and then adding 50 µL of 1 mg/mL thiamine hydrochloride and 50 µL of 1 mg/mL biotin in 5% ethanol] and plates are prepared.
# Each plate is inoculated by placing in a triangular shape three 4-mm plugs of Gaeumannomyces graminis var. tritici (Ggt) grown on the minimal media agar described above. The plates are incubated in the dark at 19 - 20 °C for 4 to 5 days. The growth of the fungus is measured as the diameter of the mycelial growth. The result is expressed as Percent Inhibition, calculated as [1 - [(mm growth on treated plate - 4)/(mm growth on control plate - 4)]] x 100.
# To determine IC5O values, an in vitro assay was run on each compound at the concentrations of 1, 0.1, 0.01, 0.001, and 0.0001 ppm. The percent inhibition was calculated for each concentration using the equation described in the in vitro assay under the section on Biological Assays. Using the two ordered pairs of (concentration, % inhibition) that bracket 50% inhibition of fungal growth, the concentration for 50% inhibition is calculated from the following equation. IC50 = [(50-I2 )C1 + (I1 -50)C2 ]/(I1 -I2 ), [formula] where C1 = 10C2.
row,SMILES,inhibition at 0.1 ppm [%]
1,"CCCNC(=O)c1c(OC2(C)CCCCC2)ccc2ccccc12 [Example 40, N-propyl 2-[(1-methyl-1-cyclohexyl)oxy]-1-naphthamide]",74
2,"CCNC(=O)c1c(OC(C)(C)CC)ccc2ccccc12 [Example 26, N-ethyl 2-[(1,1-dimethylpropyl)oxy]-1-naphthamide]",76
3,"C=CCNC(=O)c1c(OC(C)(CC)CC)ccc2ccccc12 [Example 29, N-allyl 2-[(1,1-diethylethyl)oxy]-1-naphthamide]",96

# Same assay, conditions: 1 ppm in agar, 19 - 20 °C, 4 to 5 days, read-out: In vitro(ppm) 1, Percent Inhibition
row,SMILES,inhibition at 1 ppm [%]
1,"CCCNC(=O)c1c(OC2(C)CCCCC2)ccc2ccccc12 [Example 40, N-propyl 2-[(1-methyl-1-cyclohexyl)oxy]-1-naphthamide]",83
2,"CCNC(=O)c1c(OC(C)(C)CC)ccc2ccccc12 [Example 26, N-ethyl 2-[(1,1-dimethylpropyl)oxy]-1-naphthamide]",95
3,"C=CCNC(=O)c1c(OC(C)(CC)CC)ccc2ccccc12 [Example 29, N-allyl 2-[(1,1-diethylethyl)oxy]-1-naphthamide]",96

# Same assay, conditions: 10 ppm in agar, 19 - 20 °C, 4 to 5 days, read-out: In vitro(ppm) 10, Percent Inhibition
row,SMILES,inhibition at 10 ppm [%]
1,"CCCNC(=O)c1c(OC2(C)CCCCC2)ccc2ccccc12 [Example 40, N-propyl 2-[(1-methyl-1-cyclohexyl)oxy]-1-naphthamide]",98
2,"CCNC(=O)c1c(OC(C)(C)CC)ccc2ccccc12 [Example 26, N-ethyl 2-[(1,1-dimethylpropyl)oxy]-1-naphthamide]",98
3,"C=CCNC(=O)c1c(OC(C)(CC)CC)ccc2ccccc12 [Example 29, N-allyl 2-[(1,1-diethylethyl)oxy]-1-naphthamide]",96

# Same assay, conditions: interpolated from percent inhibition at 1, 0.1, 0.01, 0.001 and 0.0001 ppm
row,IC50 [µg/mL],SMILES
1,0.0636,"CCCNC(=O)c1c(OC2(C)CCCCC2)ccc2ccccc12 [Example 40, N-propyl 2-[(1-methyl-1-cyclohexyl)oxy]-1-naphthamide]"
2,0.00814,"C=CCNC(=O)c1c(OC(C)(CC)CC)ccc2ccccc12 [Example 29, N-allyl 2-[(1,1-diethylethyl)oxy]-1-naphthamide]"

# Test system: Ggt
# Assay: In vivo assay: control of Ggt on wheat in 3-inch pots with infested soil, rated after four weeks;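 as to In vivo(ppm) 0.1, percent disease control: rate is mg active ingredient per pot in 3 mL solution not ppm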;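 as to In vivo(ppm) 0.5, percent disease control: rate is mg active ingredient per pot in 3 mL solution not ppm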
# Parameters: species or system Gaeumannomyces graminis var. tritici
# Details: Gaeumannomyces graminis, 672 h; rate 0.02mg/pot; wheat, soil infested with Ggt, after four weeks; read-out: In vivo(ppm) 0.02mg/pot, percent disease control
# Procedure: Compounds are tested for control of Ggt on 'Bergen' or 'Anza' varieties of wheat grown in 3-inch square pots containing soil infested with Ggt. The infestation is accomplished by mixing the soil with an inoculum prepared by growing Ggt on 1/4 strength potato dextrose agar (4.875 g potato dextrose agar, 5.0 g Bacto agar, 500 mL distilled, deionized water) in plates and using plugs from the plates to infest sterile oats (400 cc whole oats, 350 mL deionized water, autoclaved). After a one-month incubation period at room temperature, the oats are dried and mixed with the soil at 4% v/v. Four wheat seeds are placed on top of the soil in each pot. […] Five pots are used for each treatment level and the controls, which are untreated, inoculated and non-inoculated pots. After one hour drying time, the seeds are covered with more of the appropriate soil and a layer of vermiculite. The pots are placed in a growth chamber and watered each day. After four weeks, each pot is evaluated for evidence of disease by examination of the seminal roots of each plant under a dissecting microscope. A 0 to 5 rating scale having the following meanings is used: • 0 = no runner hyphae or lesions present • 1 = runner hyphae and a few small lesions present on <10% of root system • 2 = runner hyphae and small lesions present on 10 - 25% of root system • 3 = runner hyphae and lesions present on 25 - 50% of root system • 4 = runner hyphae and many, large, coalescing lesions on >50% of root system • 5 = root system and culm completely inundated with lesions and runner hyphae
# From each set of five replicates a high or low score may be eliminated to assure the best representative scores are used to calculate a replicate mean by averaging the remaining scores. This mean score is then compared to the untreated control score and a percent disease control is calculated.
row,SMILES,pest or weed control at 0.02 mg/pot [%]
1,"CCCNC(=O)c1c(OC2(C)CCCCC2)ccc2ccccc12 [Example 40, N-propyl 2-[(1-methyl-1-cyclohexyl)oxy]-1-naphthamide]",3
2,"CCNC(=O)c1c(OC(C)(C)CC)ccc2ccccc12 [Example 26, N-ethyl 2-[(1,1-dimethylpropyl)oxy]-1-naphthamide]",17
3,"C=CCNC(=O)c1c(OC(C)(CC)CC)ccc2ccccc12 [Example 29, N-allyl 2-[(1,1-diethylethyl)oxy]-1-naphthamide]",40

# Same assay, conditions: Gaeumannomyces graminis, 672 h; rate 0.1 (head prints ppm, head line ends mg/pot); wheat, soil infested with Ggt, after four weeks; N = no control; read-out: In vivo(ppm) 0.1, percent disease control
row,SMILES,pest or weed control at 0.1 mg/pot [%]
1,"CCCNC(=O)c1c(OC2(C)CCCCC2)ccc2ccccc12 [Example 40, N-propyl 2-[(1-methyl-1-cyclohexyl)oxy]-1-naphthamide]",32
2,"CCNC(=O)c1c(OC(C)(C)CC)ccc2ccccc12 [Example 26, N-ethyl 2-[(1,1-dimethylpropyl)oxy]-1-naphthamide]",56
3,"C=CCNC(=O)c1c(OC(C)(CC)CC)ccc2ccccc12 [Example 29, N-allyl 2-[(1,1-diethylethyl)oxy]-1-naphthamide]",57

# Same assay, conditions: Gaeumannomyces graminis, 672 h; rate 0.5 (head prints ppm, head line ends mg/pot); wheat, soil infested with Ggt, after four weeks; N = no control; read-out: In vivo(ppm) 0.5, percent disease control
row,SMILES,pest or weed control at 0.5 mg/pot [%]
1,"CCCNC(=O)c1c(OC2(C)CCCCC2)ccc2ccccc12 [Example 40, N-propyl 2-[(1-methyl-1-cyclohexyl)oxy]-1-naphthamide]",60
2,"CCNC(=O)c1c(OC(C)(C)CC)ccc2ccccc12 [Example 26, N-ethyl 2-[(1,1-dimethylpropyl)oxy]-1-naphthamide]",84
3,"C=CCNC(=O)c1c(OC(C)(CC)CC)ccc2ccccc12 [Example 29, N-allyl 2-[(1,1-diethylethyl)oxy]-1-naphthamide]",75

# Test system: Ggt
# Assay: In vivo (8 week) seed treatment assay: Large Pot Greenhouse Take-All Assay
# Parameters: species or system Gaeumannomyces graminis var. tritici
# Details: seed treatment 0.125 g/kg seed; wheat, 6-inch pots, roots rated after 7-10 weeks
# Procedure: An advanced 8-week seed treatment in vivo assay in soil is as follows.
# Compounds are tested for control of Ggt on 'Bergen' or 'Anza' varieties of wheat grown in 6-inch round pots containing soil (equal to thirds of Metro-mix, sand, and silt-loam field soil, all steam sterilized). Seeds are treated with a solution of compound of the present invention at 10,000 ppm stock solution in acetone. 20 mg in 2 ml will treat 10 g of seed at each of 4 rates. Using a 10,000 ppm stock for each compound make the following dilutions series:
# A treatment jar is rinsed 2 times with 3 ml of actone. Then 1 ml of the solution is swirled to cover the base of the jar. 10 g of seed are added to the jar and capped after which the jar is swirled and shaken until the seeds get a rapid and even coverage. After about 30-50 seconds the lid is removed as the shaking is continued. After 1 minute the jar is set down to dry. When dry, the seed are poured back into the envelope for either planting in the pots or stored until such planting. The method of planting is as follows:
# The 6-inch pots are packed to their ledge with the above soil mix.
# a) Treated seed is placed on the surface of the soil (packed to ledge) at the rate of 8 seeds per pot with the seeds about 2-3 inches apart. 5 pots (replicates) are planted per treatment. b) 15 ml of oat inoculum (about 4g) are measured and sprinkled evenly over the soil surface of each pot. c) The soil/seed/inoculum is covered with 180 ml of soil mix (same as above). A 150 ml beaker filled to the top edge-is about 180 ml. d) Initially each of the prepared pots is watered lightly several times to wet soil without washing out seeds. e) In cool winter months the prepared pots are left in the greenhouse at 16° - 18°C with only minimal supplemental light. In warmer months the prepared pots are put in a growth chamber set at 17°C for 3-4 weeks to establish disease, then placed in a greenhouse until harvest. The wheat is harvested, washed, and the roots are rated after 7-10 weeks. f) A % of diseased root area is assigned values using 1, 5, 10, 20, 30, 40, 50, 60, 80, or 100 %. Each pot of plants gets a single rating.
row,SMILES,% control (rates are g/kg seed) 0.125 [%]
1,"CCNC(=O)c1c(OC(C)(C)CC)ccc2ccccc12 [Example 26, N-ethyl 2-[(1,1-dimethylpropyl)oxy]-1-naphthamide]",25

# Same assay, conditions: seed treatment 0.25 g/kg seed; wheat, 6-inch pots, roots rated after 7-10 weeks
row,SMILES,% control (rates are g/kg seed) 0.25 [%]
1,"CCCNC(=O)c1c(OC2(C)CCCCC2)ccc2ccccc12 [Example 40, N-propyl 2-[(1-methyl-1-cyclohexyl)oxy]-1-naphthamide]",13
2,"CCNC(=O)c1c(OC(C)(C)CC)ccc2ccccc12 [Example 26, N-ethyl 2-[(1,1-dimethylpropyl)oxy]-1-naphthamide]",25
3,"C=CCNC(=O)c1c(OC(C)(CC)CC)ccc2ccccc12 [Example 29, N-allyl 2-[(1,1-diethylethyl)oxy]-1-naphthamide]",0

# Same assay, conditions: seed treatment 0.5 g/kg seed; wheat, 6-inch pots, roots rated after 7-10 weeks
row,SMILES,% control (rates are g/kg seed) 0.5 [%]
1,"CCCNC(=O)c1c(OC2(C)CCCCC2)ccc2ccccc12 [Example 40, N-propyl 2-[(1-methyl-1-cyclohexyl)oxy]-1-naphthamide]",13
2,"CCNC(=O)c1c(OC(C)(C)CC)ccc2ccccc12 [Example 26, N-ethyl 2-[(1,1-dimethylpropyl)oxy]-1-naphthamide]",4
3,"C=CCNC(=O)c1c(OC(C)(CC)CC)ccc2ccccc12 [Example 29, N-allyl 2-[(1,1-diethylethyl)oxy]-1-naphthamide]",4

# Same assay, conditions: seed treatment 1 g/kg seed; wheat, 6-inch pots, roots rated after 7-10 weeks
row,SMILES,% control (rates are g/kg seed) 1 g [%]
1,"CCCNC(=O)c1c(OC2(C)CCCCC2)ccc2ccccc12 [Example 40, N-propyl 2-[(1-methyl-1-cyclohexyl)oxy]-1-naphthamide]",22
2,"CCNC(=O)c1c(OC(C)(C)CC)ccc2ccccc12 [Example 26, N-ethyl 2-[(1,1-dimethylpropyl)oxy]-1-naphthamide]",25
3,"C=CCNC(=O)c1c(OC(C)(CC)CC)ccc2ccccc12 [Example 29, N-allyl 2-[(1,1-diethylethyl)oxy]-1-naphthamide]",4
